Data published in article PMC6661824, “α-Glucosidase inhibitors from a mangrove associated fungus, Zasmidium sp. strain EM5-10” (BMC Chemistry, 2019).
Several values for one entry are separate records, joined by “and”; a condition that tells them apart may be missing. Identical values can stand only once.

Tests used:
[1] = molecular target: α-Glucosidase from baker's yeast; assay: α-Glucosidase inhibitory assay (PNP-G substrate); type: biochemical, S. cerevisiae
Protocol: (§1) The α-glucosidase inhibitory assay was performed according to the protocol established in our laboratory. α-Glucosidase from baker’s yeast purchased from Sigma Chemical Co. The inhibition was measured spectrophotometrically at pH 7.0 and 37 °C employing 2 mM p-nitrophenyl α-D-glucopyranoside (PNP-G) as a substrate and 32 mU/mL of the enzyme, in 100 mM potassium phosphate buffer (enzyme stock). […] The absorbance (A) of 4-nitrophenol released by the hydrolysis of PNP-G was measured at 400 nm by Synergy HT Bio Tek microplate spectrophotometer. […] After incubating, 150 µL of the substrate was added and further incubated for 20 min at 37 °C. All assays are performed in 96-well microplates (Greiner bio-one 655101) in duplicate. The activity of samples was calculated as a percentage in comparison to a control (DMSO or MeOH instead of sample solution) according to the following equation: %Inhibition=ΔAcontrol-ΔAsample/ΔAcontrol×100%
The concentration required to inhibit activity of the enzyme by 50% (IC50) was calculated by regression analysis.

α-glucosidase = assay: Kinetic analysis of α-glucosidase inhibition (Lineweaver–Burk plots); type: biochemical, S. cerevisiae; settings: for type of inhibition against α-glucosidase: Lineweaver–Burk plots; for Vmax: maximum reaction velocity of α-glucosidase in presence of inhibitor
Protocol: Kinetic analysis was carried out to understand the interaction of tripalmitin with α-glucosidase. Lineweaver–Burk plots were constructed using different concentrations of substrate and tripalmitin.
as §1

[2] = standards purchased from Sigma-Aldrich

IC50 ([1]; pH 7.0, 37 °C, 2 mM PNP-G) | IC50 α-glucosidase ([1]; pH 7.0, 37 °C, 2 mM PNP-G) [µg/mL] | IC50 [1, 2] [µM] | type of inhibition against α-glucosidase (α-glucosidase) | Vmax (α-glucosidase) [mmol/L/min] | α-glucosidase inhibition (result in words) ([1]; obtained from methanolysis reaction) | SMILES
3.75 µM and 3.67 µM | 3.02 | 3.2 | mixed inhibitor | 0.0027 ± 0.0001 | – | CCCCCCCCCCCCCCCC(=O)OCC(COC(=O)CCCCCCCCCCCCCCC)OC(=O)CCCCCCCCCCCCCCC [Compound 1, tripalmitin]
– | – | – | – | – | inactive | OCC(O)CO [glycerol]
0.46 µM | 0.13 | – | mixed inhibitors | 0.0024 ± 0.0002 | – | CCCCCCCCCCCCCCCC(=O)OC [methyl palmitate]
0.23 µM | – | – | – | – | – | CCCCCCCC/C=C\CCCCCCCC(=O)O [oleic acid]
0.81 µM | – | – | – | – | – | CCCCCCCCCCCCCCCCCC(=O)O [stearic acid]
– | – | 1.52 | – | – | – | CCCCCCCC/C=C\CCCCCCCC(=O)OCC(COC(=O)CCCCCCC/C=C\CCCCCCCC)OC(=O)CCCCCCC/C=C\CCCCCCCC [triolein]
